The source of these data is ChEMBL document CHEMBL3045721, “Fungicidal Activity of New Diphenylphosphinic Amide Derivatives” (Biosci Biotechnol Biochem, 1992).

Data set [1] concerns Pseudoperonospora cubensis. The experiment in a line: Fungicidal activity against Pseudoperonospora cubensis administered through preventive foliar spraying of compound at 100 ppm 1 day before fungal inoculation on cucumber plants assessed as prevention of cucumber downy mildew measured 6 days after inoculation under greenhouse conditions. In kind it is functional.
The subject of data set [2] is Cucumis sativus. The experiment in a line: Toxicity against Pseudoperonospora cubensis infected Cucumis sativus (cucumber) plants administered through preventive foliar spraying of compound at 25 to 100 ppm 1 day before fungal inoculation on cucumber plants measured 6 days after inoculation under greenhouse conditions. To be noted: in vivo, other, 144 h. Format: organism-based.

Data set [3] deals with Pseudoperonospora cubensis. Description: Fungicidal activity against Pseudoperonospora cubensis administered through preventive foliar spraying of compound at 25 ppm 1 day before fungal inoculation on cucumber plants assessed as prevention of cucumber downy mildew measured 6 days after inoculation under greenhouse conditions. Format: functional.
In data set [4] the test system is Cucumis sativus. Description: Toxicity against Pseudoperonospora cubensis infected Cucumis sativus (cucumber) plants administered through preventive foliar spraying of compound at 100 ppm 5 days before fungal inoculation on cucumber plants measured 6 days after inoculation under field test conditions. In kind it is organism-based. To be noted: in vivo, other, 144 h.

Data set [5] deals with Pseudoperonospora cubensis. Description: Fungicidal activity against Pseudoperonospora cubensis administered through preventive foliar spraying of compound at 100 ppm 5 days before fungal inoculation on cucumber plants assessed as prevention of cucumber downy mildew measured 6 days after inoculation under field test conditions. In kind it is functional.

Each structure is given as a SMILES string.

In the case of `O=C(CSP(=NP(=O)(c1ccccc1)c1ccccc1)(c1ccccc1)c1ccccc1)Nc1ccccc1`, the values for the Activity (in data set [1]; with Cucumis sativus [2]; in data set [3]) were 91%, “Non-toxic” and 75%, respectively.

`O=P(N=P(SCc1ccccc1)(c1ccccc1)c1ccccc1)(c1ccccc1)c1ccccc1`: the Activity was 100% in data set [1]; “Non-toxic” in the data set with Cucumis sativus [2]; “Non-toxic” in the data set with Cucumis sativus [4]; 86% in data set [3]; 88% in data set [5].

In the case of `CSP(=NP(=S)(c1ccccc1)c1ccccc1)(c1ccccc1)c1ccccc1`, the Activity in data set [1] is 82%; in the data set on Cucumis sativus [2], “Non-toxic”; in data set [3], 50%.

`CCOC(=O)C(C)SP(=NP(=O)(c1ccccc1)c1ccccc1)(c1ccccc1)c1ccccc1` (stereo unspecified): the Activity in data set [1] is 90%; in the data set with Cucumis sativus [2], “Non-toxic”; in data set [3], 76%.

Consider `N#CCSP(=NP(=O)(c1ccccc1)c1ccccc1)(c1ccccc1)c1ccccc1`, for which the Activity in data set [1] was 89%; in the data set on Cucumis sativus [2], “Non-toxic”; in data set [3], 74%.

In the case of `CCSP(=NP(=O)(c1ccccc1)c1ccccc1)(c1ccccc1)c1ccccc1`, the Activity in data set [1] was 82%; with Cucumis sativus [2] it was “Non-toxic”; in data set [3], 43%.

As for `CSP(=NP(=O)(c1ccccc1)c1ccccc1)(c1ccccc1)c1ccccc1`, the values for the Activity (in data set [1]; in the data set with Cucumis sativus [2]; in data set [3]) were 80%, “Non-toxic” and 41%, respectively.

For the compound `CCSP(=NP(=S)(c1ccccc1)c1ccccc1)(c1ccccc1)c1ccccc1`, the Activity in data set [1] is given as 79%; with Cucumis sativus [2] it was “Non-toxic”; in data set [3], 47%.

With `CCOC(=O)CSP(=NP(=O)(c1ccccc1)c1ccccc1)(c1ccccc1)c1ccccc1`, the Activity is reported as 92% in data set [1], “Non-toxic” in the data set with Cucumis sativus [2] and 77% in data set [3].

As to `C/C=C/CSP(=NP(=O)(c1ccccc1)c1ccccc1)(c1ccccc1)c1ccccc1`, the Activity is 79% in data set [1], “Non-toxic” in the data set on Cucumis sativus [2] and 40% in data set [3].

Consider `S=P(N=P(SCc1ccccc1)(c1ccccc1)c1ccccc1)(c1ccccc1)c1ccccc1`, for which the Activity is recorded as 100% in data set [1]; “Non-toxic” in the data set on Cucumis sativus [2]; “Non-toxic” in the data set with Cucumis sativus [4]; 88% in data set [3]; 91% in data set [5].

For `CCOC(=O)C(C)SP(=NP(=S)(c1ccccc1)c1ccccc1)(c1ccccc1)c1ccccc1` (stereo unspecified), the Activity in data set [1] is on record as 85%; in the data set on Cucumis sativus [2], “Non-toxic”; in data set [3], 70%.

In the case of `O=C(CSP(=NP(=S)(c1ccccc1)c1ccccc1)(c1ccccc1)c1ccccc1)NCc1ccccc1`, the Activity in data set [1] is reported as 87%; in the data set on Cucumis sativus [2] it was “Non-toxic”; in data set [3], 73%.

For the compound `O=C(CSP(=NP(=O)(c1ccccc1)c1ccccc1)(c1ccccc1)c1ccccc1)NCc1ccccc1`, the Activity in data set [1] was 93%; in the data set with Cucumis sativus [2] it was “Non-toxic”; in data set [3], 76%.
